Test results reported in US20260232666A1, “COMPOSITIONS AND METHODS FOR INHIBITION OF RAS” (TheRas, Inc., priority 2023, published 2026).

Assays:
[1] = molecular target: T1, GppNHp-loaded KRAS4b (amino acids 1-169) G12C/C118S protein (Homo sapiens, UniProt P01116, C118S/G12C); assay: Covalent cysteine 12 modification by MALDI-TOF MS, GppNHp-loaded KRAS G12C; type: binding; conditions: 15 minutes reaction time point
T1 construct: KRAS4b (amino acids 1-169) G12C/C118S protein; made in house
Method in brief: (§1)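 Percent modification comes from MALDI-TOF peak heights: the compound-adduct peak divided by the sum of the remaining-protein and adduct peaks. Reactions contained 1 μM protein and compound at a 1:2.5 ratio, in pH 7.3 HEPES buffer with NaCl and MgCl2, held 15 min at room temperature.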

[2] = molecular target: T2, GTP-loaded KRAS4b (amino acids 1-169) G12C/C118S protein (Homo sapiens, UniProt P01116, C118S/G12C); assay: Covalent cysteine 12 modification by MALDI-TOF MS, GTP-loaded KRAS G12C; type: binding; conditions: 15 minutes reaction time point
T2 construct: KRAS4b (amino acids 1-169) G12C/C118S protein; made in house
Method in brief: as §1

[3] = tested on: pERK in NCI-H358 cells; assay: Cell-based pERK HTRF assay (pERK inhibition in H358 cells); conditions: 30 min incubation
Method in brief: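 NCI-H358 cells were seeded at 4×10^4 cells/well in RPMI/10% FBS, then treated next day for 30 min at 0.25% DMSO (9-point, 3-fold series from 75 μM). Lysates were read by HTRF (d2/Eu cryptate antibody pair, 615 nm emission) after 4–24 h at room temperature to give pERK IC50.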

[4] = molecular target: T3, GDP-loaded KRAS4b (amino acids 1-169) G12C/C118S protein (Homo sapiens, UniProt P01116, C118S/G12C); assay: Covalent cysteine 12 modification by MALDI-TOF MS, GDP-loaded KRAS G12C; type: binding; conditions: 15 minutes reaction time point
T3 construct: KRAS4b (amino acids 1-169) G12C/C118S protein; made in house
Method in brief: as §1

SMILES | GppNHp-KRAS G12C percent of modification [1] | GTP-KRAS G12C percent of modification [2] | IC50 [3] [nM] | GDP-KRAS G12C percent of modification [4] | IC50 ([3]; Homo sapiens, NCI-H358, 0.5 h) [nM]
C=CC(=O)N1CC[C@@H](N(C)c2nc(OC[C@H]3C[C@@H](OC)CN3C)nc3c(F)c(-c4ccc(F)c5sc(N)c(C#N)c45)c(C(F)(F)F)cc23)[C@H]1C (single isomer, unassigned) [Compound 175] | D (percent of modification <10%) | D (percent of modification <10%) | 100 to 1000 | D (percent of modification <10%) | –
C=CC(=O)N1CC[C@@H](N(C)c2nc(OC[C@@H]3C[C@@H](F)CN3C)nc3c(F)c(-c4nc(N)cc(C)c4C(F)(F)F)c(C(F)(F)F)cc23)[C@H]1C [Compound 145] | B (50≤percent of modification <70%) | C (10%≤percent of modification <50%) | – | A (percent of modification ≥70%) | 100 to 1000
C=CC(=O)N1CCC(N(CC)c2nc(OC[C@@]34CCCN3C[C@H](F)C4)nc3c(F)c(-c4ccc(F)c5sc(N)c(C#N)c45)c(Cl)cc23)[C@H]1CC (stereo partly drawn) [Compound 12] | C (10%≤percent of modification <50%) | C (10%≤percent of modification <50%) | – | C (10%≤percent of modification <50%) | < 100
C=CC(=O)N1CC[C@@H](N(CC)c2nc(OC[C@@H]3C[C@@H](OC)CN3C)nc3cc(-c4ccc(F)c5sc(N)c(C#N)c45)c(F)cc23)[C@H]1C [Compound 140] | A (percent of modification ≥70%) | A (percent of modification ≥70%) | – | A (percent of modification ≥70%) | < 100
C=CC(=O)N1CC[C@@H](N(CC)c2nc(OC[C@]34CCCN3C[C@H](OC)C4)nc3c(F)c(-c4ccc(F)c5sc(N)c(C#N)c45)c(C(F)(F)F)cc23)[C@H]1C [Compound 158] | A (percent of modification ≥70%) | B (50≤percent of modification <70%) | – | A (percent of modification ≥70%) | < 100
C=CC(=O)N1CC[C@@H](N(C)c2nc(OC[C@@]34CCCN3C[C@H](F)C4)nc3cc(-c4ccc(F)c5sc(N)c(C#N)c45)c(C#N)cc23)[C@@H]1C [Compound 27] | A (percent of modification ≥70%) | B (50≤percent of modification <70%) | – | A (percent of modification ≥70%) | < 100
C=CC(=O)N1C[C@@H](C)N(c2nc(OC[C@@]34CCCN3C[C@H](F)C4)nc3c(F)c(-c4ccc(F)c5sc(N)c(C#N)c45)c(C(F)(F)F)cc23)C[C@@H]1C [Compound 124] | C (10%≤percent of modification <50%) | – | – | B (50≤percent of modification <70%) | < 100
C=CC(=O)N1CC[C@@H](N(C)c2nc(OC[C@@H]3CCCN3CC)nc3c(F)c(-c4ccc(F)c5sc(N)c(C#N)c45)c(C(F)(F)F)cc23)[C@@H]1C [Compound 30] | A (percent of modification ≥70%) | B (50≤percent of modification <70%) | – | – | < 100
C=CC(=O)N1CC[C@@H](N(C)c2nc(OC[C@@]34CCCN3C[C@H](OC)C4)nc3c(F)c(-c4ccc(F)c5sc(N)c(C#N)c45)c(C(F)(F)F)cc23)[C@H]1C [Compound 151] | A (percent of modification ≥70%) | A (percent of modification ≥70%) | – | – | < 100
C=CC(=O)N1CC[C@@H](N(C)c2nc(OC[C@@H]3C[C@@H](F)CN3C)nc3c(F)c(-c4ccc(F)c5sc(N)c(C#N)c45)c(C(F)(F)F)cc23)[C@@H]1C [Compound 32] | A (percent of modification ≥70%) | C (10%≤percent of modification <50%) | – | – | < 100
